Source: patent US8916541B2, “Synergistic combination of honokiol and modified citrus pectin in cancer therapy” (Better Health Publishing, Inc., priority 2011, dated 2014)

Tests used:
[1] = test system: suppressor/cytotoxic T-lymphocyte subset (CD3/CD8); experiment: FastImmune CD69 T-cytotoxic/suppressor lymphocyte activation in whole blood cultures; format: cell-based, human; conditions: 10 ng/ml
Excerpt: (§1) In vitro lymphocyte activation represents a standard approach for evaluating cell-mediated responses to a variety of stimuli including immunostimulatory botanical extracts. The FastImmune assay system monitors the expression of the early activation marker CD69 in whole blood after stimulation with extracts.
(§2) T-lymphocyte subsets can be identified and quantified by using fluorochrome-labeled antibody combinations such as CD4/CD69/CD3 and CD8/CD69/CD3. CD4 antigen is expressed on the T-helper/inducer lymphocyte subset (CD3/CD4). CD8 antigen is expressed on the human suppressor/cytotoxic T-lymphocyte subset (CD3/CD8). Once activated both CD4 and CD8 positive T cells express CD69.
(§3) Blood samples were collected from healthy volunteers and 250 μl blood sample were incubated in 48-well plates with increasing concentrations of compound along with appropriate positive controls (recommended by Becton Dickinson Biosciences, CA) for each subset. CD2/CD2R and Phorbol ester (PMA) were used as controls for T-lymphocyte activation studies. […] T2CA, a characterized polysaccharide complex evaluated in these assays was also used as a control. The blood cultures were incubated at 37° C. in a CO2 incubator for 24 h. […] The percentage of activated T-cell subsets, B-cells and NK-cells and the percentage increase over untreated control were calculated and plotted against compound concentrations.

[2] = test system: T-helper/inducer lymphocyte subset (CD3/CD4); experiment: FastImmune CD69 T-helper/inducer lymphocyte activation in whole blood cultures; format: cell-based, human; conditions: 10 ng/ml
Excerpt: as §1, §2, §3

[3] = test system: liver cancer BEL-7404 cell line cells; experiment: MTT cell viability assay
[4] = increase over untreated control

SMILES | T-cytotoxic/suppressor Lymphocyte Activation, Activation (%) ([1]; 24 h blood culture) | T-cytotoxic/suppressor Lymphocyte Activation, % Increase [1, 4] | T-helper/inducer Lymphocyte Activation, Activation (%) ([2]; 24 h blood culture) | T-helper/inducer Lymphocyte Activation, % Increase [2, 4] | cell growth inhibition ([3]; 10 μg/ml of HNK, 72 hour treatment, BEL-7404 cells) | inhibition ([3]; 5 mcg/ml of HNK alone, BEL-7404 cells, FIG. 1) | cytotoxicity on BEL-7404 cells (in words) ([3]; 72 hour treatment, single agents)
CCCCCCCCCCCCCC(=O)O[C@@H]1[C@@H](C)[C@@]2(O)[C@@H](C=C(CO)C[C@]3(O)C(=O)C(C)=C[C@@H]23)[C@@H]2C(C)(C)[C@]12OC(C)=O [PMA, Phorbol ester] | 5.68% | 54.45% | 5.93% | 120.86% |  |  | 
C=CCc1ccc(O)c(-c2ccc(O)c(CC=C)c2)c1 [HNK, honokiol] |  |  |  |  | 68.7% | around 25% | cytotoxicity on BEL-7404 cells in a dose dependent manner
